{"source": "patent US11866692B2", "about": "“Fermentation fungal substance of astragalus membranaceus paecilomyces cicadae and its use” (BinZhou Medical University, priority 2019, dated 2024)", "system": "rats with hyperuricemia", "experiment": "Efficacy test in potassium oxonate-induced hyperuricemia rats (serum UA, BUN, CRE, TG)", "format": "in vivo, Sprague Dawley (SD) rats", "conditions": "gavage twice each day for 14 days, 300 mg·kg−1 (benzbromarone 20 mg·kg−1), serum 4 h after last administration", "experimental": "SD rats were randomly divided into normal group, hyperuricemia (HUA) model group, positive medicine control group, Astragalus membranaceus group and fungal substance A group based on body mass, with 8 rats in each group. They were used in experiments after one week of adaptive feeding in an animal room. All groups were fed with normal feed. In addition, the normal group was treated with distilled water by gavage. Other groups were treated with 300 mg·kg^−1 of potassium oxonate by gavage each day for modeling. After 1 hour, the positive medicine control group was treated with 20 mg·kg^−1 of benzbromarone by gavage, the Astragalus membranaceus group was treated with 300 mg·kg^−1 of an Astragalus membranaceus powder solution by gavage, and the fungal substance A group was treated with 300 mg·kg^−1 of a fungal substance A solution by gavage. The treatment was performed twice each day for 14 consecutive days, and the dosage was 10 mL·kg^−1. Four hours after administration on the last day, blood samples were taken from the orbital venous plexus of the rats. The blood samples were stored at 4° C. overnight, and then centrifuged to obtain serum, which was for determination of biochemical indexes. After routine calibration and quality control, the contents of uric acid (UA), urea nitrogen (BUN), creatinine (CRE) and triglyceride (TG) in serum were determined by an automatic biochemical analyzer. All test results are expressed in the form of “mean±standard deviation”. Excel and software SPSS17.0 were utilized for calculation and statistics. After all data were tested for normal distribution and homogeneity of variance, single factor analysis of variance was performed. The difference between the two groups was tested by t-test. When P<0.05, the difference was considered to be statistically significant."}
{"smiles": "CCc1oc2ccccc2c1C(=O)c1cc(Br)c(O)c(Br)c1", "note": "[benzbromarone]", "values": [{"measurement": "Serum UA level compared with the model group", "setting": "FIG. 1", "value": "significantly reduced"}, {"measurement": "Serum CRE level compared with the model group", "setting": "FIG. 3", "value": "very significantly reduced"}, {"measurement": "Serum TG level compared with the model group", "setting": "FIG. 4", "value": "significantly reduced"}]}
